For 2 compounds, IC50, LD50 and inhibition results are on record in patent publication US4598084A, “Optically active derivatives of N-arylated oxazolidine-2-one, the process for preparing same and their application in therapeutics” (Delalande S.A., priority 1982, dated 1986).

Data set [1] has as its target T1, type B monoamine oxidase (MAO.B) (Rattus norvegicus, UniProt P19643).
T1 construct: the brains being removed, weighed, homogeneized; from tissue; host or cells: brain of orally dosed rats, homogenized
T1 sequence (P19643 1-520): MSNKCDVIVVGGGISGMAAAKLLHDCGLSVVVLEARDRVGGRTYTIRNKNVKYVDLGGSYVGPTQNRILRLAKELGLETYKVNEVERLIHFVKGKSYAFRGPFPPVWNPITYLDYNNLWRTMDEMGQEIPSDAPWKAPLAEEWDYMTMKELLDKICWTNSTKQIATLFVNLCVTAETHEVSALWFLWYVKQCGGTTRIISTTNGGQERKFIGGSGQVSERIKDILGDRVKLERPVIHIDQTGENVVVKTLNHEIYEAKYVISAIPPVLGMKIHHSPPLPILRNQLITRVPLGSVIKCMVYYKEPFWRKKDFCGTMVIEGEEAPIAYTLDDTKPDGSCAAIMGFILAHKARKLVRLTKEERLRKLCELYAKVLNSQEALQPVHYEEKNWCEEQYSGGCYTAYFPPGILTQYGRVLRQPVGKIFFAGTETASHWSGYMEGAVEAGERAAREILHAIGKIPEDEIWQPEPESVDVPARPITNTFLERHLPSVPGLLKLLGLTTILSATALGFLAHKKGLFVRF
The data set can be described thus: in vitro MAO.B inhibition on homogenized rat brain, phenylethylamine (PEA) substrate. Conditions: Table 1, rat brain homogenate, read-out: MAO.B inhibition effect (P.E.A.) IC 50. The data set is classed as biochemical, rats. From the text: (§1) in vitro, on the homogeneized brain of rats, by measuring the dose inhibiting by 50% (IC 50) the activity of monoamine oxidase (MAO) by taking phenylethylamine (PEA) as substrate of type B monoamine oxidase (MAO.B) and serotonine (5-HT) as substrate of type A monoamine oxidase (MAO.A), according to the procedure described by M. STROLIN BENEDETTI et al. in: Monoamine oxidase Basic and Clinical Frontiers, publishers K. KAMISO-E. USDIN-T. NAGATSO-Excepta Medica (1982)-page 209);

Data set [2] can be described thus: oral acute toxicity in mice (Miller and Tainter's method). Conditions: mouse, in vivo, mice, oral, read-out: Acute toxicity (mice) LD 50. In kind it is in vivo. The text has this: The results obtained in the in vitro test are shown in table 1 below and the results obtained in the ex vivo test, as well as the oral acute toxicity in mice evaluated according to MILLER and TAINTER's method [Proc. Soc.

Data set [3] addresses T2, type A monoamine oxidase (MAO.A) (Rattus norvegicus, UniProt P21396).
T2 construct: the brains being removed, weighed, homogeneized; from tissue; host or cells: brain of orally dosed rats, homogenized
T2 sequence (P21396 1-526): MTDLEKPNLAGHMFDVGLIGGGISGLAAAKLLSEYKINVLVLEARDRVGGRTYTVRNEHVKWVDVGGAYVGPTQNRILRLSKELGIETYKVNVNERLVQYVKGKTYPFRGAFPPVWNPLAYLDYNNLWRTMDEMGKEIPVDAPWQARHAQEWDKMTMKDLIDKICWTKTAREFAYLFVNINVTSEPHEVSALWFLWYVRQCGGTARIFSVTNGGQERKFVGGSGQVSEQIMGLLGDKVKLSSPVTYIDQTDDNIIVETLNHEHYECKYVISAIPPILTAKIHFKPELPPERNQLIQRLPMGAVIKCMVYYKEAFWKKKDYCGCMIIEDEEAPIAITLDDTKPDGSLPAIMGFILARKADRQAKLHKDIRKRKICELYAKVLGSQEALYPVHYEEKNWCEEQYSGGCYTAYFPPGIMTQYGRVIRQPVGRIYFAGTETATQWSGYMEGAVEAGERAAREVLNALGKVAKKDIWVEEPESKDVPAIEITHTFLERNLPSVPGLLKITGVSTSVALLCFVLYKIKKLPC
The data set can be described thus: ex vivo brain MAO.A inhibition after single oral dose in rats, 5-HT substrate. As for the experimental part: (§2) ex vivo, on rats to which was administered orally a single dose of the compounds of formula (I) (or their pharmaceutically acceptable salts) or their corresponding racemic of formula (Io), in a 0.5% suspension in methylcellulose, the rats being sacrificed by being beheaded at varying times, the brains being removed, weighed, homogeneized and the determination of the MAOI activity being made by using serotonine and phenylethylamine, according to the procedure described by J. P. KAN and M. STROLIN-BENEDETTI in Life Sciences 26, 2165, (1980).

The target in data set [4] is T2, type A monoamine oxidase (MAO.A). Kind of data set: in vitro MAO.A inhibition on homogenized rat brain, serotonine (5-HT) substrate. In kind it is biochemical, rats. Conditions: Table 1, rat brain homogenate, read-out: MAO.A inhibition effect (5-HT) IC 50.
Source text: as §1

Data set [5] has as its target T1, type B monoamine oxidase (MAO.B). The data set can be described thus: ex vivo brain MAO.B inhibition after single oral dose in rats, PEA substrate. Conditions: rat, po, 5 mg/kg p.o. Here is the method:
as §2

Where two headings read alike, the source gives them in different places.

Consider `O=C1OC(CO)CN1c1ccc(OCc2cccc(Cl)c2)cc1` (racemic) [Racemic of (Ia), reference compound], for which the values for the IC50 in data set [1] and in data set [4] were 20 nM and 600 nM, respectively. For the same compound, the LD50 in data set [2] (Table 3) was more than 1000 mg/kg. The inhibition at 5 mg/kg worked out at 21% in data set [3] (Table 3, 5 mg/kg p.o., rats, 30, unit inferred, read-out: % MAO inhibition effect after n hour(s), 5-HT); 18% in data set [3] (Table 3, 5 mg/kg p.o., rats, 1 hour, read-out: % MAO inhibition effect after n hour(s), 5-HT); 20% in data set [3] (Table 3, 5 mg/kg p.o., rats, 2 hours, read-out: % MAO inhibition effect after n hour(s), 5-HT); 9% in data set [3] (Table 3, 5 mg/kg p.o., rats, 4 hours, read-out: % MAO inhibition effect after n hour(s), 5-HT); 0% in data set [3] (Table 3, 5 mg/kg p.o., rats, 8 hours, read-out: % MAO inhibition effect after n hour(s), 5-HT); 2% in data set [3] (Table 3, 5 mg/kg p.o., rats, 24 hours, read-out: % MAO inhibition effect after n hour(s), 5-HT). Also, the inhibition at 5 mg/kg in data set [5] (Table 3, rats, 30, unit inferred, read-out: % MAO inhibition effect after n hour(s), PEA) worked out at 79%; in data set [5] (Table 3, rats, 1 hour, read-out: % MAO inhibition effect after n hour(s), PEA) it was 78%; in data set [5] (Table 3, rats, 2 hours, read-out: % MAO inhibition effect after n hour(s), PEA), 79%; in data set [5] (Table 3, rats, 4 hours, read-out: % MAO inhibition effect after n hour(s), PEA), 68%; in data set [5] (Table 3, rats, 8 hours, read-out: % MAO inhibition effect after n hour(s), PEA) it was 47%; in data set [5] (Table 3, rats, 24 hours, read-out: % MAO inhibition effect after n hour(s), PEA), 1%.
Consider `CNCC1CN(c2ccc(OCc3cccc(Cl)c3)cc2)C(=O)O1` (racemic) [Racemic of (Ib), reference compound], for which the values for the IC50 in data set [1] and in data set [4] were 34 nM and 14000 nM, respectively. Further, the LD50 in data set [2] (Table 2) is more than 1000 mg/kg. Further, the inhibition at 5 mg/kg in data set [3] (Table 2, 5 mg/kg p.o., rats, 1 hour, read-out: % MAO inhibition effect after n hour(s), 5-HT (IMAO.A)) was determined as 7%; in data set [3] (Table 2, 5 mg/kg p.o., rats, 2 hours, read-out: % MAO inhibition effect after n hour(s), 5-HT (IMAO.A)), 8%; in data set [3] (Table 2, 5 mg/kg p.o., rats, 4 hours, read-out: % MAO inhibition effect after n hour(s), 5-HT (IMAO.A)), 10%; in data set [3] (Table 2, 5 mg/kg p.o., rats, 8 hours, read-out: % MAO inhibition effect after n hour(s), 5-HT (IMAO.A)), 8%; in data set [3] (Table 2, 5 mg/kg p.o., rats, 24 hours, read-out: % MAO inhibition effect after n hour(s), 5-HT (IMAO.A)), 1%; in data set [3] (Table 2, 5 mg/kg p.o., rats, 48 hours, read-out: % MAO inhibition effect after n hour(s), 5-HT (IMAO.A)), 1%. Also, the inhibition at 5 mg/kg came to 1% in data set [3] (Table 2, 5 mg/kg p.o., rats, 72 hours, read-out: % MAO inhibition effect after n hour(s), 5-HT (IMAO.A)); 84% in data set [5] (Table 2, rats, 1 hour, read-out: % MAO inhibition effect after n hour(s), PEA (IMAO.B)); 85% in data set [5] (Table 2, rats, 2 hours, read-out: % MAO inhibition effect after n hour(s), PEA (IMAO.B)); 78% in data set [5] (Table 2, rats, 4 hours, read-out: % MAO inhibition effect after n hour(s), PEA (IMAO.B)); 67% in data set [5] (Table 2, rats, 8 hours, read-out: % MAO inhibition effect after n hour(s), PEA (IMAO.B)); 31% in data set [5] (Table 2, rats, 24 hours, read-out: % MAO inhibition effect after n hour(s), PEA (IMAO.B)). In addition, the inhibition at 5 mg/kg in data set [5] (Table 2, rats, 48 hours, read-out: % MAO inhibition effect after n hour(s), PEA (IMAO.B)) was found to be 29%; in data set [5] (Table 2, rats, 72 hours, read-out: % MAO inhibition effect after n hour(s), PEA (IMAO.B)) it was 21%.

In general, inhibition refers to how much of the control response was suppressed.
